These results are taken from patent US20110015133A1, “PAX2 AND PAX8 AS TUMOUR TARGETS FOR IMMUNOLOGIC AND MOLECULAR TREATMENT STRATEGIES” (Charite-Universitatsmedizin Berlin, priority 2006, published 2011).

The subject of assay [1] is CD3+CD8+ lymphocytes from patients with renal cell and ovarian cancer. Description: Screening of PAX8 candidate epitopes for recognition by T-cells (IFNγ/TNFα) in carcinoma patients. The settings on record: for recognition by T-cells of patients in peptide pools: 4 pools of three peptides each, every peptide in two pools. The class given is cell-based, human. The text has this:
To identify T-cell epitopes, they were screened for recognition by T-cells from patients with renal cell and ovarian cancer which are PAX8 positive tumours secreting cytokine IFNγ or TNFα in response to PAX 8 or control HIV peptide. By using 4 pools of three peptides each, every peptide was present in two pools.

Assay [2] has as its system T2-cells loaded with peptide. The experiment in a line: Cr release assay, peptide-loaded T2-cells. It is filed as cell-based. The note with it: T-cells induced against peptide 3496 in a renal cancer patient; 10:1 E:T; label = peptide loaded on T2. The text has this: (§1) A panel of colorectal cancer cell lines has been characterized expressing both PAX2 and PAX8 to function as targets for recognition by specific T-cells (Table IV).

For assay [3], the system named is T-cells of a patient with renal cancer. The experiment in a line: Induction of a T-cell response in a cancer patient. Also noted: species or system human.
In assay [4] the test system is colon cancer cell line SW480. The experiment in a line: Cr release assay, colon cancer cell line. It is filed as cell-based.
From the text: as §1

The mark [5] stands for this setting: patient # 1 Ovarian, first line (IFNγ).
Where [6] appears, read: patient # 1 Ovarian, second line (TNFα).
The mark [7] stands for this setting: patient # 2 Ovarian, first line (IFNγ).
[8] abbreviates: patient # 2 Ovarian, second line (TNFα).
[9] abbreviates: patient # 3 Ovarian, first line (IFNγ).
The mark [10] stands for this setting: patient # 3 Ovarian, second line (TNFα).
The mark [11] stands for this setting: patient # 4 Ovarian, first line (IFNγ).
The mark [12] stands for this setting: patient # 4 Ovarian, second line (TNFα).
[13] abbreviates: patient # 5 Ovarian, first line (IFNγ).
Setting [14] is: patient # 5 Ovarian, second line (TNFα).
The mark [15] stands for this setting: patient # 6 Ovarian, first line (IFNγ).
Where [16] appears, read: patient # 6 Ovarian, second line (TNFα).
Where [17] appears, read: patient # 7 Renal cell, first line (IFNγ).
Setting [18] is: patient # 7 Renal cell, second line (TNFα).
[19] abbreviates: patient # 8 Renal cell, first line (IFNγ).
The mark [20] stands for this setting: patient # 8 Renal cell, second line (TNFα).
Setting [21] is: patient # 9 Renal cell, first line (IFNγ).
The mark [22] stands for this setting: patient # 9 Renal cell, second line (TNFα).

For “T L T P S N T P L (TLTPSNTPL; listed as Homo sapiens) [Peptide 277-285]”, the “recognition by T-cells of patients in peptide pools” value in assay [1] was “recognized in both pools”. The “PAX8 candidate epitope recognized (both pools containing it reactive)” value (shortened to “PAX8 candidate epitope recognized”) in assay [1] (setting [5]), in assay [1] (setting [6]), in assay [1] (setting [7]), in assay [1] (setting [8]), in assay [1] (setting [9]) and in assay [1] (setting [10]) was “no” in each case. For the same substance, the “PAX8 candidate epitope recognized” value in assay [1] (setting [11]), in assay [1] (setting [12]), in assay [1] (setting [13]), in assay [1] (setting [14]), in assay [1] (setting [15]) and in assay [1] (setting [16]) was “no” in each case. In addition, the “PAX8 candidate epitope recognized” value in assay [1] (setting [17]) is recorded as “no”; in assay [1] (setting [18]) it was “no”; in assay [1] (setting [19]), “no”; in assay [1] (setting [20]) it was “no”; in assay [1] (setting [21]), “no”; in assay [1] (setting [22]), “yes”.

“A L L S G R E M V (ALLSGREMV; listed as Homo sapiens) [Peptide 359-367]”: the “PAX8 candidate epitope recognized” value in assay [1] (setting [5]), in assay [1] (setting [6]), in assay [1] (setting [7]), in assay [1] (setting [8]), in assay [1] (setting [9]) and in assay [1] (setting [10]) was “no” each time. In addition, the “PAX8 candidate epitope recognized” value in assay [1] (setting [11]), in assay [1] (setting [12]), in assay [1] (setting [13]), in assay [1] (setting [14]), in assay [1] (setting [15]) and in assay [1] (setting [16]) was “no” throughout. In addition, the “PAX8 candidate epitope recognized” value in assay [1] (setting [17]), in assay [1] (setting [18]), in assay [1] (setting [19]), in assay [1] (setting [20]), in assay [1] (setting [21]) and in assay [1] (setting [22]) was “no” each time.

For “S L S S S A F L D L (SLSSSAFLDL; listed as Homo sapiens) [Peptide 323-333]”, the “recognition by T-cells of patients in peptide pools” value in assay [1] is reported as “recognized in both pools”. The “PAX8 candidate epitope recognized” value in assay [1] (setting [5]) is recorded as “yes”; in assay [1] (setting [6]), “no”; in assay [1] (setting [7]), “no”; in assay [1] (setting [8]), “no”; in assay [1] (setting [9]), “no”; in assay [1] (setting [10]) it was “no”. Further, the “PAX8 candidate epitope recognized” value in assay [1] (setting [11]), in assay [1] (setting [12]), in assay [1] (setting [13]), in assay [1] (setting [14]), in assay [1] (setting [15]) and in assay [1] (setting [16]) was “no” each time. The “PAX8 candidate epitope recognized” value in assay [1] (setting [17]), in assay [1] (setting [18]), in assay [1] (setting [19]), in assay [1] (setting [20]), in assay [1] (setting [21]) and in assay [1] (setting [22]) was “no” in each case.

On to “T L P G Y P P H I (TLPGYPPHI; listed as Homo sapiens) [Peptide 370-378]”, for which the “PAX8 candidate epitope recognized” value in assay [1] (setting [5]), in assay [1] (setting [6]), in assay [1] (setting [7]), in assay [1] (setting [8]), in assay [1] (setting [9]) and in assay [1] (setting [10]) was “no” in each case. Further, the “PAX8 candidate epitope recognized” value in assay [1] (setting [11]), in assay [1] (setting [12]), in assay [1] (setting [13]), in assay [1] (setting [14]), in assay [1] (setting [15]) and in assay [1] (setting [16]) was “no” in each case. For the same substance, the “PAX8 candidate epitope recognized” value in assay [1] (setting [17]), in assay [1] (setting [18]), in assay [1] (setting [19]), in assay [1] (setting [20]), in assay [1] (setting [21]) and in assay [1] (setting [22]) was “no” throughout.

Regarding T L P G Y P P H V [Peptide 3496], the “specific cytolysis (killing) of peptide-loaded T2-cells” value in assay [2] came out at 32%. In addition, the “induction of specific T-cells against the peptide” value in assay [3] was “able to induce specific T-cells”. In addition, the “cytolysis of SW480 inhibited by cold target” value in assay [4] (T-cells induced against peptide 3496, with cold target) is 10%. The “specific cytolysis of colon cancer cell line SW480” value in assay [4] (T-cells induced against peptide 3496 in a renal cancer patient) was 28%.

For the substance “T L D D G K A T L (TLDDGKATL; listed as Homo sapiens) [Peptide 270-278]”, the “PAX8 candidate epitope recognized” value in assay [1] (setting [5]), in assay [1] (setting [6]), in assay [1] (setting [7]), in assay [1] (setting [8]), in assay [1] (setting [9]) and in assay [1] (setting [10]) was “no” in each case. The “PAX8 candidate epitope recognized” value in assay [1] (setting [11]), in assay [1] (setting [12]), in assay [1] (setting [13]), in assay [1] (setting [14]), in assay [1] (setting [15]) and in assay [1] (setting [16]) was “no” in each case. The “PAX8 candidate epitope recognized” value in assay [1] (setting [17]), in assay [1] (setting [18]), in assay [1] (setting [19]), in assay [1] (setting [20]), in assay [1] (setting [21]) and in assay [1] (setting [22]) was “no” in each case.

With “N L S T H Q T Y P V (NLSTHQTYPV; listed as Homo sapiens) [Peptide 288-298]”, the “PAX8 candidate epitope recognized” value in assay [1] (setting [5]), in assay [1] (setting [6]), in assay [1] (setting [7]), in assay [1] (setting [8]), in assay [1] (setting [9]) and in assay [1] (setting [10]) was “no” in each case. In addition, the “PAX8 candidate epitope recognized” value in assay [1] (setting [11]), in assay [1] (setting [12]), in assay [1] (setting [13]), in assay [1] (setting [14]), in assay [1] (setting [15]) and in assay [1] (setting [16]) was “no” each time. In addition, the “PAX8 candidate epitope recognized” value in assay [1] (setting [17]), in assay [1] (setting [18]), in assay [1] (setting [19]), in assay [1] (setting [20]), in assay [1] (setting [21]) and in assay [1] (setting [22]) was “no” throughout.
